# Measured values taken from patent US11034672B1, “Tyrosine kinase inhibitor compositions, methods of making and methods of use” (Black Diamond Therapeutics, Inc., priority 2018, dated 2021).
# Experiments:
# Format in all cases: cell-based
# HER2 YVMA [1] = target: T1, HER2 YVMA (Homo sapiens, UniProt P04626, INS775YVMA); assay: BaF3 cell proliferation assay, HER2 YVMA (Table B); settings: potency code, 3 days, CellTiterGlo, read-out: HER2 YVMA (Activity for Inhibiting HER2)
# T1 construct: expressed in transfected cells; host or cells: BaF3 (murine pro-B)
# EGFR SVD [2] = target: T2, EGFR SVD (Homo sapiens, UniProt P00533, DUP768-770); assay: BaF3 cell proliferation assay, EGFR SVD (Table A); settings: potency code, 3 days, CellTiterGlo, read-out: EGFR SVD (Activity for Inhibiting EGFR)
# T2 construct: expressed in transfected cells; host or cells: BaF3 (murine pro-B), retroviral pMXs-IRES-Blasticidin
# T2 sequence (P00533 with tags, fused parts or gaps DUP768-770): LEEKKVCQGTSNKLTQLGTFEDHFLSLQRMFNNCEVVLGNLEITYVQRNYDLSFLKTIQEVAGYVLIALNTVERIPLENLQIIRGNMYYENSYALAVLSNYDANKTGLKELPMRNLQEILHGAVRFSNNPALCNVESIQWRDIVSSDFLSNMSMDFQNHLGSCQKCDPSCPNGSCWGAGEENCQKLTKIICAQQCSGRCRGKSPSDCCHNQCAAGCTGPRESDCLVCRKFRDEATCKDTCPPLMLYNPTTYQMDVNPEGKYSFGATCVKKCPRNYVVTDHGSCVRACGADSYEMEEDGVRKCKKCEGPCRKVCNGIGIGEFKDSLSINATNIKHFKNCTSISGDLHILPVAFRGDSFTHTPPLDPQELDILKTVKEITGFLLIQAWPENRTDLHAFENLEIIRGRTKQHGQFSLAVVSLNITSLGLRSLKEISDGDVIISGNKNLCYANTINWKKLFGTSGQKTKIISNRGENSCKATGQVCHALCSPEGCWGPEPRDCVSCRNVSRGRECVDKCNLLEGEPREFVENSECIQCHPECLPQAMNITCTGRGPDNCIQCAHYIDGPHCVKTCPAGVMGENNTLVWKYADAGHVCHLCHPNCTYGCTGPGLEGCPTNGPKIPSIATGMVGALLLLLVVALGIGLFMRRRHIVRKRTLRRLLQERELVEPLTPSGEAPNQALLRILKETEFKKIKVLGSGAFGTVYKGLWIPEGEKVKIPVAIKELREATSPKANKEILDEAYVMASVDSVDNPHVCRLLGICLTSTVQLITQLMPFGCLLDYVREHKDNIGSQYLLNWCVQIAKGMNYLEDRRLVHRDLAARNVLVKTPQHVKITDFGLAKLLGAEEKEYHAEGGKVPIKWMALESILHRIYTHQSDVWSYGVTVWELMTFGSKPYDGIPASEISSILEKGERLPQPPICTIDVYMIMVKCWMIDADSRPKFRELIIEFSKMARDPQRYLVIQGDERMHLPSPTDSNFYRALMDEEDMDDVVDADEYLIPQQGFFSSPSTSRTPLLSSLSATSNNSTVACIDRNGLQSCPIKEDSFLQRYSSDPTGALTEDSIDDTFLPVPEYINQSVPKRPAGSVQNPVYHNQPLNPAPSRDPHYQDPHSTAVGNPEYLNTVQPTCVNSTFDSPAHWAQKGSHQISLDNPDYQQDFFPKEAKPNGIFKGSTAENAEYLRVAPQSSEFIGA
# Experimental: (§1) Retroviral Production: EGFR mutants were subcloned into pMXs-IRES-Blasticidin (RTV-016, Cell Biolabs, San Diego, Calif.). Retroviral expression vector retrovirus was produced by transient transfection of HEK 293T cells with the retroviral EGFR mutant expression vector pMXs-IRES-Blasticidin (RTV-016, Cell Biolabs), pCMV-Gag-Pol vector and pCMV-VSV-G-Envelope vector. Briefly, HEK 293T/17 cells were plated in 100 mm collagen coated plate (354450, Corning Life Sciences, Tewksbury, Mass.) (4×10^5 per plate) and incubated overnight. The next day, retroviral plasmids (3 μg of EGFR mutant, 1.0 μg of pCMV-Gag-Pol and 0.5 μg pCMV-VSV-G) were mixed in 500 μl of Optimem (31985, Life Technologies). The mixture was incubated at room temperature for 5 min and then added to Optimem containing transfection reagent Lipofectamine (11668, Invitrogen) and incubated for 20 minutes. Mixture was then added dropwise to HEK 293T cells. The next day the medium was replaced with fresh culture medium and retrovirus was harvested @ 24 and 48 hrs.
# (§2) Generation of EGFR mutant stable cell lines: BaF3 cells (1.5E5 cells) were infected with 1 ml of viral supernatant supplemented with 8 μg/ml polybrene by centrifuging for 30 min at 1000 rpm. Cells were placed in a 37° C. incubator overnight. Cells were then spun for 5 minutes to pellet the cells. Supernatant was removed and cells re-infected a fresh 1 ml of viral supernatant supplemented with 8 μg/ml polybrene by centrifuging for 30 min at 1000 rpm. Cells were placed in 37° C. incubator overnight. […] After 48 hours cells were selected for retroviral infection in 10 μg/ml Blasticidin for one week. Blasticidin resistant populations were washed twice in phosphate buffered saline before plating in media lacking IL-3 to select for IL-3 independent growth.
# (§3) EC50 values were determined with the same application.
# EGFR WT [3] = target: T3, EGFR WT (Homo sapiens, UniProt P00533); assay: Activity for inhibiting EGFR (Table A), EGFR WT; settings: read-out: EGFR WT, potency code (IC50)
# T3 sequence (P00533 25-1210 N540K): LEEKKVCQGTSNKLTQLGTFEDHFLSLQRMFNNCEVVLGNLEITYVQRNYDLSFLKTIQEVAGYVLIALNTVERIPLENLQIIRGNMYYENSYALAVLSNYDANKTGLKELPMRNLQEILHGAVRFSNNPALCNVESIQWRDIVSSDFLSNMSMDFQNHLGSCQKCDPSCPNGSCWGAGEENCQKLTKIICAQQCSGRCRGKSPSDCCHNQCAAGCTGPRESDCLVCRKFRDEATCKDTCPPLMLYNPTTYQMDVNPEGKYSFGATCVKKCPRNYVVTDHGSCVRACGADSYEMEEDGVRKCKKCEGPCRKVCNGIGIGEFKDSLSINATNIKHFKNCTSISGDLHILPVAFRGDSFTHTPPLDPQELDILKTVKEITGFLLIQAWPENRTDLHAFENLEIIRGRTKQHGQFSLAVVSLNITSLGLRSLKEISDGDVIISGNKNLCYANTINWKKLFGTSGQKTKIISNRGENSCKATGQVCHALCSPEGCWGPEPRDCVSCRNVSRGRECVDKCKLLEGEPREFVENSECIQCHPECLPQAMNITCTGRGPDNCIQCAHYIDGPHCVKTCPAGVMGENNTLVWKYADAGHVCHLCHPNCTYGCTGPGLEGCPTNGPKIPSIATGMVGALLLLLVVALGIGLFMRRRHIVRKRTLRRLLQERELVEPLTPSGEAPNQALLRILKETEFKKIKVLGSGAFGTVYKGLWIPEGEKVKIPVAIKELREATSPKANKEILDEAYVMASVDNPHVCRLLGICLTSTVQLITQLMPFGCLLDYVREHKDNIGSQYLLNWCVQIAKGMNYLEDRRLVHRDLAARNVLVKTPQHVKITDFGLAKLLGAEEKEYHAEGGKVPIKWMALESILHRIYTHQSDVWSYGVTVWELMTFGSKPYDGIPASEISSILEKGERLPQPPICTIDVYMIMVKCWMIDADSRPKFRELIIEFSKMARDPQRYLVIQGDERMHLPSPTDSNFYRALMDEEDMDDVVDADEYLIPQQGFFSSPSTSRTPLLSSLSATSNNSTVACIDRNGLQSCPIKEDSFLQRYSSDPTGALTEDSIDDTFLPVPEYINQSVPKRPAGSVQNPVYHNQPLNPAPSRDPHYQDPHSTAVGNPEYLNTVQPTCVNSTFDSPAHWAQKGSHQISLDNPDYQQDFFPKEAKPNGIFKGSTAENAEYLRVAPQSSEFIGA
# HER2 S310F [4] = target: T4, HER2 S310F (Homo sapiens, UniProt P04626, S310F); assay: BaF3 cell proliferation assay, HER2 S310F (Table B); settings: potency code, 3 days, CellTiterGlo, read-out: HER2 S310F (Activity for Inhibiting HER2)
# T4 construct: expressed in transfected cells; host or cells: BaF3 (murine pro-B)
# HER2 S310F [5] = target: T4, HER2 S310F; assay: Activity for inhibiting HER2 (Table B), HER2 S310F; settings: read-out: HER2 S310F, potency code (IC50)
# Experimental: as §3
# EGFR V3 [6] = target: T5, EGFR V3 (Homo sapiens, UniProt P00533, DELINS30-297G); assay: BaF3 cell proliferation assay, EGFR V3 (Table A); settings: potency code, 3 days, CellTiterGlo, read-out: EGFR V3 (Activity for Inhibiting EGFR)
# T5 construct: expressed in transfected cells; host or cells: BaF3 (murine pro-B), retroviral pMXs-IRES-Blasticidin
# Method in brief: (§4)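 BaF3 + retroviral EGFR/HER2 mutant (two rounds of spinfection, 8 μg/ml polybrene); 10 μg/ml Blasticidin selection 1 wk; IL-3 withdrawn to select IL-3-independent growth. EC50 from cell proliferation.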
# EGFR NPH [7] = target: T6, EGFR NPH (Homo sapiens, UniProt P00533, DUP771-773); assay: Activity for inhibiting EGFR (Table A), EGFR NPH; settings: read-out: EGFR NPH, potency code (IC50)
# T6 construct: expressed in transfected cells; host or cells: BaF3 (murine pro-B), retroviral pMXs-IRES-Blasticidin
# T6 sequence (P00533 with tags, fused parts or gaps DUP771-773): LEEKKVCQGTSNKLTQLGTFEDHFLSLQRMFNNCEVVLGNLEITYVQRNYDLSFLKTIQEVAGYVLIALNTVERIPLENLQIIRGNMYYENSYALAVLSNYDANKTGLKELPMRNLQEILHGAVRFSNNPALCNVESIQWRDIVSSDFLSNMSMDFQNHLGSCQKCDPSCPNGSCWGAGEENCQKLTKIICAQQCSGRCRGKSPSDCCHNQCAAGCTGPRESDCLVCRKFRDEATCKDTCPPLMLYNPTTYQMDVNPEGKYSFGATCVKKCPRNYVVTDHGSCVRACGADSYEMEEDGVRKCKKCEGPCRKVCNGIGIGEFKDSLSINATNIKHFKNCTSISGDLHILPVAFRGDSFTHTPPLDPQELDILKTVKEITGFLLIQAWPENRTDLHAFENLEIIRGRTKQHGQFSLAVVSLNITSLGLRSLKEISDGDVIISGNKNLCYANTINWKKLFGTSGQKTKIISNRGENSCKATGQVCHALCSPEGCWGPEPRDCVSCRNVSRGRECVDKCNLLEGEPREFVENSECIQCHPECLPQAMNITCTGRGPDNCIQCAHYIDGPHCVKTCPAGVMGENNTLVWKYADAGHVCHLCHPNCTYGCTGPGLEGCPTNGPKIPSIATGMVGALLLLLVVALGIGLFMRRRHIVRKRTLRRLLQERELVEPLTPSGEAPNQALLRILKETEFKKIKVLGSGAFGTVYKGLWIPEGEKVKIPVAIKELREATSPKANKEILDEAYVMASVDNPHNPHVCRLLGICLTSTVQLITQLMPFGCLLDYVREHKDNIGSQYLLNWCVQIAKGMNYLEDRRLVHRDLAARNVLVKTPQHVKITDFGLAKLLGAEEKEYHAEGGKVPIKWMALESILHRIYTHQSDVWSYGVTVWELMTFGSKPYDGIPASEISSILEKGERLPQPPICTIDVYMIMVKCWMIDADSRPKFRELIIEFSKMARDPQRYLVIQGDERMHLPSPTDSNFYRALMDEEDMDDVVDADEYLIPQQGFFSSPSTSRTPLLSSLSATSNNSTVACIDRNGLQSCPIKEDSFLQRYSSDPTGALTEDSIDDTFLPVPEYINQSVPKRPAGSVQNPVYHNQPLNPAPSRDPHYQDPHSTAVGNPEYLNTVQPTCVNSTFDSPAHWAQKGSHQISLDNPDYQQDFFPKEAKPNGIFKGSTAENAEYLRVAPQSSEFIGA
# EGFR V3 [8] = target: T5, EGFR V3; assay: Activity for inhibiting EGFR (Table A), EGFR V3 (EGFR-Viii); settings: read-out: EGFR V3, potency code (IC50)
# EGFR NPH [9] = target: T6, EGFR NPH; assay: BaF3 cell proliferation assay, EGFR NPH (Table A); settings: potency code, 3 days, CellTiterGlo, read-out: EGFR NPH (Activity for Inhibiting EGFR)
# Experimental: as §1, §2, §3
# HER2 WT [10] = target: T7, HER2 WT (Homo sapiens, UniProt P04626); assay: Activity for inhibiting HER2 (Table B), HER2 WT
# T7 sequence (P04626 23-1255): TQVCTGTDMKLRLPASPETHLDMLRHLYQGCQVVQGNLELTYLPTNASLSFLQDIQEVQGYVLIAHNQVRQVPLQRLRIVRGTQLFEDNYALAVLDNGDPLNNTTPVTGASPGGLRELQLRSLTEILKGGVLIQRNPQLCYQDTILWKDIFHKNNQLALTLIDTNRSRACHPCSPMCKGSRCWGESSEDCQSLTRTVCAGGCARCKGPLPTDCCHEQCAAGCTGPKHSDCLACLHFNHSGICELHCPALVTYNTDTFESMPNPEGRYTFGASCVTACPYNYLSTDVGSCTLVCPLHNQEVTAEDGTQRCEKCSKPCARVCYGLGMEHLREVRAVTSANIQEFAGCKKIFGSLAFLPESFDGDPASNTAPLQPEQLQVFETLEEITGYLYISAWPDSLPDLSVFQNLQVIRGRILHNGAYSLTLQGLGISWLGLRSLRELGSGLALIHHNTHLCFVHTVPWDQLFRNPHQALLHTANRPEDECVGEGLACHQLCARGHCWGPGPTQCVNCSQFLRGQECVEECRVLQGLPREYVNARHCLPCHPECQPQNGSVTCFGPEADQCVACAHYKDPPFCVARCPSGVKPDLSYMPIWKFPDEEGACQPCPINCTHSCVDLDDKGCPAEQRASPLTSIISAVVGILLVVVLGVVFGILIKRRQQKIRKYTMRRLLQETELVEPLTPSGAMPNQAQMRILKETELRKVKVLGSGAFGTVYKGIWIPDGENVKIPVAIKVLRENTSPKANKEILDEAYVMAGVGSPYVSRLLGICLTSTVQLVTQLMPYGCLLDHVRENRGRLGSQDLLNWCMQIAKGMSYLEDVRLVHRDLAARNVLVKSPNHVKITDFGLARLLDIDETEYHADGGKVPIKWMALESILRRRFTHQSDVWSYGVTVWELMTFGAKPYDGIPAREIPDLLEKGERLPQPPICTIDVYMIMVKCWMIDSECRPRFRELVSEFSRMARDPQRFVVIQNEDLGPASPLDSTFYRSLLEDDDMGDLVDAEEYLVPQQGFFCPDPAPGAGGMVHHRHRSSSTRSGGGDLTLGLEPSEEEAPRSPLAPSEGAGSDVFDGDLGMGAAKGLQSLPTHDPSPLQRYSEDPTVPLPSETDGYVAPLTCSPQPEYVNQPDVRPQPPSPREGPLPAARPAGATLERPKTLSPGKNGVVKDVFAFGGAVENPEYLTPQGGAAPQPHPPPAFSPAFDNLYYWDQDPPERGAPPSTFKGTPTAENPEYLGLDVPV
# HER2 WT [11] = target: T7, HER2 WT; assay: BaF3 cell proliferation assay, HER2 WT (Table B); settings: potency code, 3 days, CellTiterGlo, read-out: HER2 WT (Activity for Inhibiting HER2)
# EGFR SVD [12] = target: T2, EGFR SVD; assay: Activity for inhibiting EGFR (Table A), EGFR SVD; settings: read-out: EGFR SVD, potency code (IC50)
# EGFR WT [13] = target: T3, EGFR WT; assay: BaF3 cell proliferation assay, EGFR WT (Table A); settings: potency code, 3 days, CellTiterGlo, read-out: EGFR WT (Activity for Inhibiting EGFR)
# Method in brief: as §4
# HER2 YVMA [14] = target: T1, HER2 YVMA; assay: Activity for inhibiting HER2 (Table B), HER2 YVMA; settings: read-out: HER2 YVMA, potency code (IC50)
# Experimental: as §3
# [15] = Table B, read-out: HER2 WT, potency code (IC50)
# [16] = text lists of compounds, read-out: IC50 value for inhibiting wild-type HER2
SMILES,IC50 (HER2 YVMA [1]) [nM],IC50 (EGFR SVD [2]) [nM],IC50 (EGFR WT [3]) [nM],IC50 (HER2 S310F [4]) [nM],IC50 (HER2 S310F [5]) [nM],IC50 (EGFR V3 [6]) [nM],IC50 (EGFR NPH [7]) [nM],IC50 (EGFR V3 [8]) [nM],IC50 (EGFR NPH [9]) [nM],IC50 (HER2 WT [10]; [15]) [nM],IC50 (HER2 WT [10]; [16]) [nM],IC50 (HER2 WT [11]) [nM],IC50 (EGFR SVD [12]) [nM],IC50 (EGFR WT [13]) [nM],IC50 (HER2 YVMA [14]) [nM]
C=CC(=O)Nc1cc2c(Nc3ccc(OCc4ccccn4)c(Cl)c3)ncnc2cc1OCCN(C)C [compound 19],100 to 200,100 to 200,200 to 300,20 to 30,20 to 30,20 to 30,100 to 200,20 to 30,100 to 200,5 to 10,≤ 10,5 to 10,100 to 200,200 to 300,100 to 200
C=CC(=O)Nc1cc2c(Nc3ccc(OCc4ccccn4)c(Cl)c3)ncnc2cc1OCCCN1CC2CC1CO2 (stereo not drawn) [compound 20],10 to 20,10 to 20,200 to 300,10 to 20,10 to 20,20 to 30,10 to 20,20 to 30,10 to 20,< 5,≤ 10,< 5,10 to 20,200 to 300,10 to 20
C=CC(=O)Nc1cc2c(Nc3ccc(OCc4ccccn4)c(Cl)c3)ncnc2cc1OCCCN1CCCC1 [compound 22],30 to 50,10 to 20,50 to 100,5 to 10,5 to 10,20 to 30,20 to 30,20 to 30,20 to 30,< 5,≤ 5,< 5,10 to 20,50 to 100,30 to 50
C=CC(=O)Nc1cc2c(Nc3ccc(OCc4ccccn4)c(Cl)c3)ncnc2cc1OC1CN(C)C1 [compound 25],50 to 100,30 to 50,500 to 1000,10 to 20,10 to 20,200 to 300,20 to 30,200 to 300,20 to 30,10 to 20,≤ 20,10 to 20,30 to 50,500 to 1000,50 to 100
C=CC(=O)Nc1cc2c(Nc3ccc(OCc4ccccn4)c(Cl)c3)ncnc2cc1OCCN1CCCC1 [compound 28],30 to 50,30 to 50,200 to 300,10 to 20,10 to 20,10 to 20,50 to 100,10 to 20,50 to 100,5 to 10,≤ 10,5 to 10,30 to 50,200 to 300,30 to 50
C=CC(=O)Nc1cc2c(Nc3ccc(OCc4ccccn4)c(Cl)c3)ncnc2cc1OCCN1C2CCC1COC2 [compound 31],100 to 200,50 to 100,500 to 1000,30 to 50,30 to 50,30 to 50,50 to 100,30 to 50,50 to 100,5 to 10,≤ 10,5 to 10,50 to 100,500 to 1000,100 to 200
C=CC(=O)Nc1cc2c(Nc3ccc(OCc4ccccn4)c(Cl)c3)ncnc2cc1OCCN1CCC1 [compound 33],100 to 200,50 to 100,300 to 500,10 to 20,10 to 20,20 to 30,50 to 100,20 to 30,50 to 100,5 to 10,≤ 10,5 to 10,50 to 100,300 to 500,100 to 200
C=CC(=O)Nc1cc2c(Nc3ccc(OCc4ccccn4)c(Cl)c3)ncnc2cc1OCCN1CC(OC)C1 [compound 35],30 to 50,20 to 30,300 to 500,10 to 20,10 to 20,20 to 30,50 to 100,20 to 30,50 to 100,< 5,≤ 5,< 5,20 to 30,300 to 500,30 to 50
C=CC(=O)Nc1cc2c(Nc3ccc(OCc4ccccn4)c(Cl)c3)ncnc2cc1OCCN1CC2CCC(C1)O2 [compound 36],30 to 50,50 to 100,> 1000,20 to 30,20 to 30,30 to 50,50 to 100,30 to 50,50 to 100,10 to 20,≤ 20,10 to 20,50 to 100,> 1000,30 to 50
C=CC(=O)Nc1cc2c(Nc3ccc(OCc4ccccn4)c(Cl)c3)ncnc2cc1OCCN1CC2CC1CO2 (stereo not drawn) [compound 39],50 to 100,30 to 50,500 to 1000,10 to 20,10 to 20,20 to 30,50 to 100,20 to 30,50 to 100,5 to 10,≤ 10,5 to 10,30 to 50,500 to 1000,50 to 100
C=CC(=O)Nc1cc2c(Nc3ccc(OCc4ccccn4)c(Cl)c3)ncnc2cc1OCCN1CCN(C)CC1 [compound 40],20 to 30,10 to 20,200 to 300,10 to 20,10 to 20,10 to 20,10 to 20,10 to 20,10 to 20,< 5,≤ 10,< 5,10 to 20,200 to 300,20 to 30
C=CC(=O)Nc1cc2c(Nc3ccc(OCc4ccccn4)c(Cl)c3)ncnc2cc1OCCN(C)C1CCOC1 (stereo not drawn) [compound 41],50 to 100,30 to 50,500 to 1000,20 to 30,20 to 30,30 to 50,50 to 100,30 to 50,50 to 100,5 to 10,≤ 10,5 to 10,30 to 50,500 to 1000,50 to 100
C=CC(=O)Nc1cc2c(Nc3ccc(OCc4ccccn4)c(Cl)c3)ncnc2cc1N1CCN(C)CC1 [compound 42],500 to 1000,500 to 1000,500 to 1000,50 to 100,50 to 100,50 to 100,> 1000,50 to 100,> 1000,30 to 50,≤ 50,30 to 50,500 to 1000,500 to 1000,500 to 1000
